Common to all, as to experiment: relative viability (nuclei count vs DMSO), 5 days (fraction); higher = more cells survive
Compound in assay [1]: Cc1ccc2nc(NCCN)c3ncc(C)n3c2c1 + CS(=O)(=O)CCNCc1ccc(-c2ccc3ncnc(Nc4ccc(OCc5cccc(F)c5)c(Cl)c4)c3c2)o1 [Lapatinib] (partner 2 µM)
In a few lines:
(§1)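 Five library-drug doses in √10 steps were combined with a fixed anchor-drug dose, or a single drug was given alone, by pin tool to lung cancer cell lines in 1536-well plates the day after seeding. Nuclei were stained and counted after 5 days. Relative viability is the nuclei count in treated wells over that in vehicle wells, taken as the median of duplicate plates.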

Compound in the assay “Salubrinal + Navitoclax”: O=C(/C=C/c1ccccc1)NC(NC(=S)Nc1cccc2cccnc12)C(Cl)(Cl)Cl [Salubrinal] + CC1(C)CCC(c2ccc(Cl)cc2)=C(CN2CCN(c3ccc(C(=O)NS(=O)(=O)c4ccc(N[C@H](CCN5CCOCC5)CSc5ccccc5)c(S(=O)(=O)C(F)(F)F)c4)cc3)CC2)C1 [Navitoclax] (partner 0.5 µM)
An outline of the steps:
as §1

Compound in the assay “Salubrinal + Pictilisib”: O=C(/C=C/c1ccccc1)NC(NC(=S)Nc1cccc2cccnc12)C(Cl)(Cl)Cl [Salubrinal] + CS(=O)(=O)N1CCN(Cc2cc3nc(-c4cccc5[nH]ncc45)nc(N4CCOCC4)c3s2)CC1 [Pictilisib] (partner 1 µM)
An outline of the steps: as §1

Compound in the assay “Salubrinal + Pemetrexed”: O=C(/C=C/c1ccccc1)NC(NC(=S)Nc1cccc2cccnc12)C(Cl)(Cl)Cl [Salubrinal] + Nc1nc2[nH]cc(CCc3ccc(C(=O)N[C@@H](CCC(=O)O)C(=O)O)cc3)c2c(=O)[nH]1 [Pemetrexed] (partner 0.2 µM)
An outline of the steps:
as §1

These results are taken from the supplement of paper PMC10307832.

Turning to UMC-11, the relative viability in assay [1] (first compound 0.04 µM) is 1.03; in assay [1] (first compound 0.1265 µM), 1.04; in assay [1] (first compound 0.4 µM), 0.877; in assay [1] (first compound 1.265 µM), 0.898; in assay [1] (first compound 4 µM), 0.91; with Salubrinal + Navitoclax (first compound 0.08 µM), 0.281. Further, the relative viability with Salubrinal + Navitoclax (first compound 0.253 µM) turned out to be 0.301; with Salubrinal + Navitoclax (first compound 0.8 µM) it was 0.329; with Salubrinal + Navitoclax (first compound 2.53 µM) it was 0.318; with Salubrinal + Navitoclax (first compound 8 µM), 0.305; in the assay with Salubrinal + Pictilisib (first compound 0.08 µM), 0.655; in the assay with Salubrinal + Pictilisib (first compound 0.253 µM) it was 0.688. Also, the relative viability with Salubrinal + Pictilisib (first compound 0.8 µM) was found to be 1.02; with Salubrinal + Pictilisib (first compound 2.53 µM) it was 0.933; with Salubrinal + Pictilisib (first compound 8 µM), 0.882; with Salubrinal + Pemetrexed (first compound 0.08 µM) it was 0.766; in the assay with Salubrinal + Pemetrexed (first compound 0.253 µM), 0.675; with Salubrinal + Pemetrexed (first compound 0.8 µM), 0.968. Also, the relative viability with Salubrinal + Pemetrexed (first compound 2.53 µM) was 0.729; with Salubrinal + Pemetrexed (first compound 8 µM), 0.726.
